# Several values for one entry are separate records, joined by “and”; a condition that tells them apart may be missing. Equal entries are not always repeated.
# How the values were obtained:
# MCF-7 cells = assay: Cell viability of MCF-7 breast cancer cells in culture (MTT or WST-1, 72 hrs); format: cell-based, human; settings: oseltamivir phosphate alone; MCF-7 (chemo-sensitive); MTT or WST-1, 72 hrs
# Method: (§1) MDA MB-231cells (ATCC® Number: HTB-26™) are human mammary gland breast adenocarcinoma derived from metastatic pleural effusion with epithelial morphology. MCF-7 (ATCC® Number: HTB-22™) are human mammary gland breast adenocarcinoma derived from metastatic pleural effusion with epithelial morphology.
# (§2) All cells were grown at 37° C. in 5% CO2 in culture media containing Dulbecco's Modified Eagle Medium (DMEM) (Gibco, Rockville, Md.) supplemented with 10% fetal calf serum (FCS) (HyClone, Logan, Utah, USA).
# (§3) MTT is a colorimetric assay for measuring the activity of enzymes that reduce MTT or closely related dyes (XTT, MTS, WSTs) to formazan dye, giving a purple color. A main application allows the assessment of the viability (cell counting) and the proliferation of cells (cell culture assays). It can also be used to determine cytotoxicity of potential medicinal agents and toxic materials, since those agents would stimulate or inhibit cell viability and growth. MTT (3-(4,5-Dimethylthiazol-2-yl)-2,5-diphenyltetrazolium bromide, a yellow tetrazole), is reduced to purple formazan in living cells. A solubilization solution (usually either dimethyl sulfoxide, an acidified ethanol solution, or a solution of the detergent sodium dodecyl sulphate in diluted hydrochloric acid) is added to dissolve the insoluble purple formazan product into a coloured solution. The absorbance of this coloured solution can be quantified by measuring at a certain wavelength (usually between 500 and 600 nm) by a spectrophotometer. The absorption maximum is dependent on the solvent employed.
# (§4) WST-1 (Roche Applied Sciences, Montreal) is a ready-to-use substrate which measures the metabolic activity of viable cells. The WST-1 assay is nonradioactive and can be performed entirely in a microplate. It is suitable for measuring cell proliferation, cell viability or cytotoxicity. The assay is based on the reduction of WST-1 by viable cells. The reaction produces a soluble formazan salt. The procedure involves: Culturing the cells in a 96-well microplate, then incubating them with WST-1 for approx. 0.5-4 h. During this incubation period, viable cells convert WST-1 to a water-soluble formazan dye. Quantitating the formazan dye in the microplate is done with an ELISA plate reader. The absorbance directly correlates with the cell number.
# MiaPaCa-2 cells = assay: Cell viability of MiaPaCa-2 pancreatic cancer cells in culture (MTT or WST-1, 72 hrs); format: cell-based, human
# [1] = tested on: PANC-1 human pancreatic cancer cells implanted in RAG1/Cγ double mutant NOD xenograft mice; assay: PANC-1 pancreatic cancer xenograft in RAG1/Cγ double mutant NOD mice; settings: for Liver metastases % Inhibition: vs untreated day 79
# Description: An immunodeficient mouse model with a double mutation in the combining recombinase activating gene-1 or -2 (RAG1 or RAG2) and common cytokine receptor γ chain (cγ) were used as xenograft mice. […] Mice deficient in both RAG2 and cγ (RAG2−/−/cγ−/−) were generated by inter-crossing and were maintained in SPF isolators in the Animal Care Facility, Queen's University, Kingston, Ontario K7L3N6, Canada. A colony was established in the animal facility. Mice deficient in both RAG1 and cγ (RAG1^−/−×cγ^−/−) on a non-obese diabetic (NOD) genetic background were obtained from the Jackson Laboratory (Bar Harbor, Me.) and a colony was established in the animal facility. All mice were kept under sterile conditions in micro-isolators or air-filtered cages, and were provided with autoclaved food and water. […] They were used between 6 and 8 weeks of age.
# Puromycin-resistance eGFP transduced MiaPaCa-2 or PANC-1 cell clones were grown in 75 cm^2 cell culture flask at 80% confluence. The cells were resuspended into solution using TrypLE Express (Gibco) and washed with sterile saline. The cell suspension was centrifuged for 3 min at 900 rpm, and the cell pellet resuspended in sterile saline at a concentration of 5-10×10^6 cells/mL for 1-2×10^6 cells implantation into the right back flank of the mouse. Tumour measurements were taken twice a week. Tumour volumes were determined by (width square/2)×length.
# The RAG1/Cγ double mutant xenograft mouse model was implanted with 2×10^6 PANC-1 cells in 0.2 mL in the right back flank.
# [2] = tested on: MiaPaCa-2-eGFP pancreatic cancer cells implanted in RAG2/Cγ double mutant Balbc xenograft mice; assay: MiaPaCa-2-eGFP pancreatic cancer xenograft in RAG2/Cγ double mutant Balbc mice; format: in vivo, mouse
# Method: Tumour measurements were taken twice a week.
# MiaPaCa-2-eGFP pancreatic cancer cells at 1.5×10^6 in 0.2 mL were implanted subcutaneously in the right back flank of these mice. Each mouse in the study was identified by an ear punch number. Twice a week each mouse following implantation of the cancer cells was monitored for tumour volume growth (length and width) at the site of implantation, body weights, and body condition scoring. Scoring the body condition of rodents is a non-invasive method for assessing health and establishing endpoints for adults where body weight is not a viable monitoring tool, such as with tumour models. Body condition scores (BC) range from 1(emaciation) to 5 (obesity). An anticipated BCS of 2—under conditioned—or lower, requires justification in the protocol. Scores are determined by frequent visual and hands-on examination of each animal. The hands-on evaluation is done by gently holding the mouse by the base of the tail and passing a finger over the sacroiliac bones. The findings are matched to the descriptions and diagrams of BC ranges to determine a score. Scores are documented for each animal.
# BxPC-3 cells = assay: Cell viability of BxPC-3 pancreatic cancer cells in culture (MTT or WST-1, 72 hrs); format: cell-based, human; settings: oseltamivir phosphate alone; BxPC-3 (chemo-resistant); MTT or WST-1, 72 hrs
# A 2780 cells = assay: Cell viability of A 2780 ovarian cancer cells in culture (MTT or WST-1, 72 hrs); format: cell-based, human; settings: oseltamivir phosphate alone; A 2780 (chemo-sensitive); MTT or WST-1, 72 hrs
# Method: (§5) A-2780 cells are human ovarian cancer cell line which was established from tumor tissue from an untreated patient with adenocarcinoma. Cells grow as a monolayer and in suspension in spinner cultures.
# as §2, §3, §4
# PANC-1 cells = assay: Cell viability of PANC-1 pancreatic cancer cells in culture (MTT or WST-1, 72 hrs); format: cell-based, human
# MDA MB-231 cells = assay: Cell viability of MDA MB-231 breast cancer cells in culture (MTT or WST-1, 72 hrs); format: cell-based, human; settings: oseltamivir phosphate alone; MDA MB-231 (chemo-resistant); MTT or WST-1, 72 hrs
# Method: as §1, §2, §3, §4
# A 2780cis cells = assay: Cell viability of A 2780cis ovarian cancer cells in culture (MTT or WST-1, 72 hrs); format: cell-based, human; settings: oseltamivir phosphate alone; A 2780cis (chemo-resistant); MTT or WST-1, 72 hrs
# Method: as §5, §2, §3, §4
# Capan-1 cells = assay: Cell viability of Capan-1 pancreatic metastatic cancer cells in culture (MTT or WST-1, 72 hrs); format: cell-based, human; settings: oseltamivir phosphate alone; Capan-1 (chemo-sensitive); MTT or WST-1, 72 hrs
# Method: CAPAN-1 cells (ATCC® Number: HTB-79™) are human pancreatic cancer cell line with epithelial morphology expressing the 17 beta-estradiol (E2)-binding estrogen receptor and derived from metastatic liver with adenocarcinoma.
# as §2, §3, §4
# [3] = oseltamivir phosphate analogues (TD), WST-1, 72 hrs
# [4] = day 84, oseltamivir phosphate 2 mg/kg daily, alone or with Abraxane 0.5 / Gemcitabine 30 mg/kg
# [5] = day 84, oseltamivir phosphate 5 mg/kg daily, alone or with Abraxane 0.5 / Gemcitabine 30 mg/kg
# [6] = day 93, oseltamivir phosphate 2 mg/kg daily, alone or with Gemcitabine 30 mg/kg
# [7] = day 93, oseltamivir phosphate 5 mg/kg daily, alone or with Gemcitabine 30 mg/kg
# [8] = oseltamivir phosphate 2 mg/kg, alone day 90, with abraxane 0.5 day 78, with gemcitabine 30 day 110
smiles,measurement,setting,value
CCOC(=O)C1=C[C@@H](OC(CC)CC)[C@H](NC(C)=O)[C@@H](N)C1 [oseltamivir phosphate],LD50,MCF-7 cells,>3 µM
same,LD50,"MiaPaCa-2 cells; oseltamivir phosphate alone, MiaPaCa (chemo-resistant), MTT or WST-1, 72 hrs",850 µM
same,LD50 MiaPaCa-2,MiaPaCa-2 cells; [3],850 µM
same,% Inhibition To untreated,"[1]; day 79, oseltamivir phosphate 2 mg/kg daily, alone or with Abraxane 0.5 / Gemcitabine 30 mg/kg",35% (n.s.)
same,Tumour volume,"[1]; day 79, oseltamivir phosphate 2 mg/kg i.p. daily, alone or with Abraxane 0.5 / Gemcitabine 30 mg/kg",901 ± 104 (5) mm^3
same,% Inhibition To untreated,"[1]; day 79, oseltamivir phosphate 5 mg/kg daily, alone or with Abraxane 0.5 / Gemcitabine 30 mg/kg",31% (n.s.)
same,Tumour volume,"[1]; day 79, oseltamivir phosphate 5 mg/kg i.p. daily, alone or with Abraxane 0.5 / Gemcitabine 30 mg/kg",956 ± 345 (4) mm^3
same,% Inhibition To untreated,[1]; [4],22% (n.s.)
same,Tumour volume,[1]; [4],1079 ± 91 (5) mm^3
same,% Inhibition To untreated,[1]; [5],5% (n.s.)
same,Tumour volume,[1]; [5],1321 ± 503 (4) mm^3
same,% Inhibition To untreated,[1]; [6],0% (n.s.)
same,Tumour volume,[1]; [6],1554 ± 469 (2) mm^3
same,% Inhibition To untreated,[1]; [7],0% (n.s.)
same,Tumour volume,[1]; [7],1406 ± 471 (2) mm^3
same,Liver metastases (ave number of nodules),"[1]; oseltamivir phosphate 2 mg/kg, alone day 90, with abraxane 0.5 mg/kg day 78, with gemcitabine 30 mg/kg day 110",26
same,"Metastases (size, mm)",[1]; [8],0.2-1.3 mm
same,Liver metastases % Inhibition,[1]; [8],38%
same,Liver metastases (ave number of nodules),"[1]; oseltamivir phosphate 5 mg/kg, alone day 90, with abraxane 0.5 mg/kg day 90, with gemcitabine 30 mg/kg day 109",21
same,Liver metastases % Inhibition,"[1]; oseltamivir phosphate 5 mg/kg, alone day 90, with abraxane 0.5 day 90, with gemcitabine 30 day 109",50%
same,Survival of tumour bearing mice,"[1]; oseltamivir phosphate 2 and 5 mg/kg, Abraxane 0.5 mg/kg, gemcitabine 30 mg/kg, alone or combined, untreated control day 80",91 days and 94 days
same,% Inhibition (tumour volume),"[2]; Table 8 study, day 46, 50 mg/kg, vs untreated",60.4%
same,% Inhibition (tumour volume),"[2]; Table 8 study, day 46, 100 mg/kg, vs untreated",61.0%
same,% Inhibition (tumour volume),"[2]; Table 8 study, day 46, 200 mg/kg, vs untreated",58.5%
same,Tumour volume,"[2]; Table 8 study, day 46 post implantation, oseltamivir phosphate 50 mg/kg",368 ± 38 (4) mm^3
same,Tumour volume,"[2]; Table 8 study, day 46 post implantation, oseltamivir phosphate 100 mg/kg",362 ± 62 (4) mm^3
same,Tumour volume,"[2]; Table 8 study, day 46 post implantation, oseltamivir phosphate 200 mg/kg",386 ± 88 (4) mm^3
same,% Inhibition (tumour volume),"[2]; day 48, 2 mg/kg i.p., vs untreated",61.7%
same,% Inhibition (tumour volume),"[2]; day 48, 10 mg/kg i.p., vs untreated",71.5%
same,% Inhibition (tumour volume),"[2]; day 48, 50 mg/kg i.p., vs untreated",60.3%
same,% Inhibition (tumour volume),"[2]; day 48, 100 mg/kg i.p., vs untreated",58.9%
same,Tumour volume,"[2]; day 48 post implantation, oseltamivir phosphate 2 mg/kg i.p.",370 ± 88 (5) mm^3
same,Tumour volume,"[2]; day 48 post implantation, oseltamivir phosphate 10 mg/kg i.p.",275 ± 71 (6) mm^3
same,Tumour volume,"[2]; day 48 post implantation, oseltamivir phosphate 50 mg/kg i.p.",383 ± 71 (4) mm^3
same,Tumour volume,"[2]; day 48 post implantation, oseltamivir phosphate 100 mg/kg i.p.",397 ± 57 (5) mm^3
same,% Inhibition (tumour volume),"[2]; day 61, 2 mg/kg i.p.",34.1%
same,% Inhibition (tumour volume),"[2]; day 61, 10 mg/kg i.p.",26.3%
same,% Inhibition (tumour volume),"[2]; day 61, 50 mg/kg i.p.",32.4%
same,% Inhibition (tumour volume),"[2]; day 61, 100 mg/kg i.p.",27.4%
same,Tumour volume,"[2]; day 61 post implantation, oseltamivir phosphate 2 mg/kg i.p.",636 ± 35 (2) mm^3
same,Tumour volume,"[2]; day 61 post implantation, oseltamivir phosphate 10 mg/kg i.p.",711 ± 159 (5) mm^3
same,Tumour volume,"[2]; day 61 post implantation, oseltamivir phosphate 50 mg/kg i.p.",652 ± 173 (3) mm^3
same,Tumour volume,"[2]; day 61 post implantation, oseltamivir phosphate 100 mg/kg i.p.",701 ± 201 (3) mm^3
same,Reduction of tumour growth in time-to-progression,"[2]; oseltamivir phosphate 2, 10, 50 and 100 mg/kg i.p. from day 40 post implantation, vs untreated",over 50%
same,LD50,BxPC-3 cells,975 µM
same,LD50,A 2780 cells,1.5 µM
same,LD50,"PANC-1 cells; oseltamivir phosphate alone, PANC-1 (chemo-resistant), MTT or WST-1, 72 hrs",1462 µM
same,LD50 PANC-1,PANC-1 cells; [3],1462 µM
same,LD50,MDA MB-231 cells,0.6 µM
same,LD50,A 2780cis cells,1.0 µM
same,LD50,Capan-1 cells,2 µM

# From US10350188B2, “Use of Neu1 sialidase inhibitors in the treatment of cancer” (priority 2011, dated 2019)
